Results reported in the NIST ThermoML archive (doi:10.1016/j.fluid.2015.12.026).
Numbers after ± are expanded uncertainties.

Test: wn = mass fraction of the nth substance listed
Conditions: 101.3 kPa, Liquid, Vibrating tube method

Work on `NC(N)=O` [urea] + OCCOCCO yielded a mass density (298.15 K, w1 = 0.2315) of 1160.9 ± 1.1 kg/m3, a mass density (313.15 K, w1 = 0.2807) of 1174.2 ± 1.3 kg/m3 and a mass density (333.15 K, w1 = 0.3526) of 1184.5 ± 1.7 kg/m3.

Work on `O=C(O)CCCCC(=O)O` [1,6-hexanedioic acid] + OCCOCCO yielded a mass density (298.15 K, w1 = 0.0878) of 1171.8 ± 0.5 kg/m3, a mass density (313.15 K, w1 = 0.1087) of 1175.7 ± 0.6 kg/m3 and a mass density (333.15 K, w1 = 0.1472) of 1188.2 ± 0.7 kg/m3.
